The record followed here is patent US5959130A, “Castor based benzoate esters” (Finetex, Inc., priority 1997, dated 1999).

Data set [1] is described as follows: sunscreen solubility: Benzophenone-3, Table IV A. The format is physicochemical. From the text:
(§1) These two sunscreens are difficult to dissolve and keep in solution for use in sunscreen formulations for optimal SPF (sun-protection factors). Higher solvency for a sunscreen ingredient is desirable as it allows higher concentrations of the sunscreen active ingredient in a formulation. This advantageously raises the SPF ratings for the formulation. The liquid organic sunscreens that are commonly used are octyl-methoxy cinnamate (OMC) and octyl salicylate (OS).
(§2) Solubility/Solvency Tables IVA and IVB show the solubility and concentrations of the sunscreen ingredient in the novel esters of the invention compared to their precursor raw materials (non-benzoate esters).

Data set [2] can be described thus: sunscreen solubility: PARSOL 1789, Table IV B. The format is physicochemical.
Excerpt: as §1, §2

Data set [3] is described as follows: physical properties of benzoate esters compared to precursors, Table II. The format is physicochemical. The settings on record: for VISCOSITY: Brookfield Viscometer, Spindle # 1, 10 rpm. The text has this:
Absence of odor is an important factor in consumer acceptance of cosmetic and toiletry products.

Data set [4] in a line: organoleptic evaluation of tactile characteristics on the forearm, Table VII. The format is in vivo, individuals. The settings on record: rating, 1 = Worst 5 = Best. As for the experimental part: The tactile characteristics of the novel benzoate esters of the invention were determined by applying the appropriate material, neat or as a dilution with another emollient ester, lanolin or […]. The properties were evaluated organoleptically after application to the interior surface of the forearm.

Data set [5] is described as follows: Hagman readings (particle size), Red No. 6 Barium Lake dispersion, Table VI A. The format is physicochemical. The settings on record: Red No. 6 Barium Lake 35%. The procedure:
(§3) The novel benzoate esters of the invention were tested for pigment and dye dispersing efficacy. Color pastes were prepared by dispersing dry pigment into the oil phase while hand stirring and then passing each mixture through a three roll mill six times, collecting a 16 oz. sample after each pass. The samples collected were subjected to particle size measurements.

Data set [6] can be described thus: viscosity readings of Red No. 21 dispersions, Table VI B. The format is physicochemical. Particulars: for Viscosity reading of dispersion: Brookfield LVT-D @ 12 RPM, Red No. 21 35%.
Data set [7] is described as follows: Hagman readings (particle size), titanium dioxide dispersion, Table VI A. The format is physicochemical. The settings on record: for Hagman reading (particle size): TiO2 50%. As for the experimental part: as §3
Data set [8] can be described thus: viscosity readings of titanium dioxide dispersions, Table VI B. The format is physicochemical. The settings on record: for Viscosity reading of dispersion: Brookfield LVT-D @ 12 RPM, TiO2 50%.
Data set [9] can be described thus: Hagman readings (particle size), Red No. 21 dispersion, Table VI A. The format is physicochemical. The settings on record: Red No. 21 35%. The procedure: as §3
The conditions of data set [10]: Gardnor scale.
[11] abbreviates: 23° C., 10 gms sunscreen in 100 gms mixture.
The mark [12] stands for this setting: 23° C., 15 gms sunscreen in 100 gms mixture.
Setting [13] is: 30° C., 10 gms sunscreen in 100 gms mixture.
The mark [14] stands for this setting: 30° C., 15 gms sunscreen in 100 gms mixture.

`CCCCCCCCCCCCCCCCOC(=O)CCCCCCCC=CCC(CCCCCC)OC(=O)c1ccccc1` (stereo not shown) [BCR, benzoic acid ester of cetyl-ricinoleate]: the “Sunscreen solubility (Benzophenone-3)” value in data set [1] (setting [11]), in data set [1] (setting [12]), in [1] (setting [13]) and in [1] (setting [14]) was “+” throughout. Further, the “Sunscreen solubility (Parsol 1789)” value in data set [2] (setting [11]), in data set [2] (setting [12]), in data set [2] (setting [13]) and in data set [2] (setting [14]) was “+” each time. Besides, in [3] (25° C.), the “S.G. (specific gravity)” value turned out to be 0.915. Besides, in data set [3], the VISCOSITY was 80 cps. The same compound yielded a GREASINESS/OILINESS in data set [4] of 4. In addition, the “OVERALL TACTILITY” value in [4] came out at 4. For the same compound, the SPREADABILITY in data set [4] was 3. The TACK in data set [4] was determined as 3. Also, the “Hagman reading (particle size)” value in [5] (pass 1) is listed as at most 53 μm; in data set [5] (pass 2), at most 50 μm; in [5] (pass 3), at most 46 μm; in [5] (pass 4) it was at most 33 μm; in data set [5] (pass 5), at most 30 μm; in [5] (pass 6), at most 27 μm. In addition, the “Hagman reading (particle size)” value was at most 30 μm in data set [7] (pass 1); at most 30 μm in data set [7] (pass 2); at most 21 μm in [7] (pass 3); at most 18 μm in data set [7] (pass 4); at most 10 μm in data set [7] (pass 5); at most 10 μm in [7] (pass 6). The “Hagman reading (particle size)” value in [9] (pass 1) is on record as at most 34 μm; in data set [9] (pass 2), at most 26 μm; in data set [9] (pass 3) it was at most 20 μm; in data set [9] (pass 4), at most 12 μm; in [9] (pass 5) it was at most 8 μm; in [9] (pass 6), at most 6 μm. Also, in data set [6], the “viscosity of Red No. 21 dispersion (in words)” value is reported as “excellent low viscosity dispersion”. Besides, the “Viscosity reading of dispersion” value is reported as 4602 cps in [6] (pass 1); 4368 cps in data set [6] (pass 2); 4212 cps in data set [6] (pass 3); 4134 cps in data set [6] (pass 4); 4290 cps in data set [6] (pass 5); 4368 cps in data set [6] (pass 6). The “Viscosity reading of dispersion” value in data set [8] (pass 1) is reported as 1794 cps; in [8] (pass 2), 1872 cps; in data set [8] (pass 3) it was 2028 cps; in data set [8] (pass 4) it was 2028 cps; in data set [8] (pass 5) it was 2028 cps; in data set [8] (pass 6), 1950 cps. For the same compound, the “particle size reduction vs precursor CR (in words)” value in data set [7] (third pass and onwards) is “better reduction of particle size”. Further, in data set [8], the “viscosity of TiO2 dispersions (in words)” value is “much lower viscosity”.

As for `CCCCCCC(CCCCCCCCCCC(=O)OCC(COC(=O)CCCCCCCCCCC(CCCCCC)OC(=O)c1ccccc1)OC(=O)CCCCCCCCCCC(CCCCCC)OC(=O)c1ccccc1)OC(=O)c1ccccc1` (stereo not shown) [BHCO, Benzoic acid ester of glyceryl-trihydroxy stearate], in data set [4], the GREASINESS/OILINESS worked out at 4, the “OVERALL TACTILITY” value is recorded as 3, the SPREADABILITY worked out at 3 and the TACK came out at 3.

On to `CCCCCCC(CCCCCCCCCCC(=O)OCC(CC)CCCC)OC(=O)c1ccccc1` (stereo not shown) [BOHS, benzoic acid ester of 2 ethyl hexyl 12-hydroxy stearate], for which the “Sunscreen solubility (Benzophenone-3)” value in data set [1] (setting [11]), in data set [1] (setting [12]), in [1] (setting [13]) and in data set [1] (setting [14]) was “+” in each case. Also, the “Sunscreen solubility (Parsol 1789)” value in data set [2] (setting [11]), in data set [2] (setting [12]), in [2] (setting [13]) and in data set [2] (setting [14]) was “+” throughout. Besides, the “S.G. (specific gravity)” value in [3] (25° C.) was 0.928. In addition, in data set [3] (25° C.), the TITER result is given as “clear”. For the same compound, the VISCOSITY in data set [3] worked out at 110 cps. This compound came in with a GREASINESS/OILINESS in [4] of 4. Further, in [4], the “OVERALL TACTILITY” value is listed as 3. In [4], this compound yielded an SPREADABILITY of 4. Further, in data set [4], the TACK is recorded as 3. Besides, the “Hagman reading (particle size)” value is at most 20 μm in data set [7] (pass 1); at most 14 μm in [7] (pass 2); at most 14 μm in data set [7] (pass 3); at most 10 μm in [7] (pass 4); at most 9 μm in data set [7] (pass 5); at most 8 μm in data set [7] (pass 6). In addition, the “viscosity of TiO2 dispersions (in words)” value in data set [8] was “much lower viscosity”. The “Viscosity reading of dispersion” value in data set [8] (pass 1) turned out to be 1170 cps; in [8] (pass 2) it was 1170 cps; in data set [8] (pass 3), 1326 cps; in data set [8] (pass 4), 1326 cps; in data set [8] (pass 5), 1326 cps; in data set [8] (pass 6), 1326 cps.

The compound `CCCCCCC(CCCCCCCCCCC(=O)OCC(COC(=O)CCCCCCCCCCC(CCCCCC)OC(=O)c1ccccc1)OC(=O)CCCCCCCCCCC(CCCCCC)OC(=O)c1ccccc1)OC(=O)c1ccccc1` (stereo not shown) [Example 6, Castor Wax MP-80 Benzoate] showed a Color in data set [10] of 3.

`CCCCCCC(CCCCCCCCCCC(=O)OCC(COC(=O)CCCCCCCCCCC(CCCCCC)OC(=O)c1ccccc1)OC(=O)CCCCCCCCCCC(CCCCCC)OC(=O)c1ccccc1)OC(=O)c1ccccc1` (stereo not shown) [Example 7, Castor Wax MP-80 Benzoate]: in [10], the Color stood at 3.

In the case of `CCCCCCCCCCCCCCCCOC(=O)CCCCCCCC=CCC(CCCCCC)OC(=O)c1ccccc1` (stereo not shown) [Example 8, Benzoate Ester of Cetyl Ricinoleate], the Color in data set [10] stood at 4.

In the case of `CCCCCCCCCCCCCCCCOC(=O)CCCCCCCC=CCC(CCCCCC)OC(=O)c1ccccc1` (stereo not shown) [Example 9, Benzoate Ester of Cetyl Ricinoleate], the Color in data set [10] worked out at 4.

In data set [10], `CCCCCCCCCCCCCCCCOC(=O)CCCCCCCC=CCC(CCCCCC)OC(=O)c1ccccc1` (stereo not shown) [Example 10, Benzoate Ester of Cetyl Ricinoleate] yielded a Color of 4.

For the compound `CCCCCCCCCCCCCCCCOC(=O)CCCCCCCC=CCC(CCCCCC)OC(=O)c1ccccc1` (stereo not shown) [Example 11, Benzoate Ester of Cetyl Ricinoleate], in data set [10], the Color came out at 4.

As to `CCCCCCC(O)CCCCCCCCCCC(=O)OCC(CC)CCCC` (stereo not shown) [OHS, octyl hydroxystearate, reference compound], the “Sunscreen solubility (Benzophenone-3)” value in data set [1] (setting [11]), in data set [1] (setting [13]) and in [1] (setting [14]) was “+” throughout. Also, the “Sunscreen solubility (Parsol 1789)” value in data set [2] (setting [11]), in data set [2] (setting [13]) and in [2] (setting [14]) was “+” throughout.
